Where “and” joins values, the source holds several entries; their conditions need not be identical. Equal entries are not always repeated.
Key:
infected injuries = conditions: applied intravenously [Ref. 1]; cited from earlier work
citrate blood [1] = assay: International normalized ratio (INR); type: biochemical, human; conditions: Example 7, 0.25 IE heparin
Description: (§1) Whole blood was taken from 11 volunteers and enriched with trisodium citrate (0.3 mL of a 0.106 molar solution per 3 mL whole blood) (S-Monovette®, Sarstedt, Nümbrecht, Germany). Commercial coagulation tests (as described in Example 6) were performed with the following samples: […]

Fibrinogen = target: T1, Fibrinogen (Homo sapiens, UniProt P02671+P02675+P02679); assay: Fibrinogen, Multifibren U test; type: biochemical; conditions: Example 7, 0.25 IE heparin
T1 construct: from tissue; host or cells: citrated whole blood of volunteers
T1 sequence (P02671 20-629 limits assumed): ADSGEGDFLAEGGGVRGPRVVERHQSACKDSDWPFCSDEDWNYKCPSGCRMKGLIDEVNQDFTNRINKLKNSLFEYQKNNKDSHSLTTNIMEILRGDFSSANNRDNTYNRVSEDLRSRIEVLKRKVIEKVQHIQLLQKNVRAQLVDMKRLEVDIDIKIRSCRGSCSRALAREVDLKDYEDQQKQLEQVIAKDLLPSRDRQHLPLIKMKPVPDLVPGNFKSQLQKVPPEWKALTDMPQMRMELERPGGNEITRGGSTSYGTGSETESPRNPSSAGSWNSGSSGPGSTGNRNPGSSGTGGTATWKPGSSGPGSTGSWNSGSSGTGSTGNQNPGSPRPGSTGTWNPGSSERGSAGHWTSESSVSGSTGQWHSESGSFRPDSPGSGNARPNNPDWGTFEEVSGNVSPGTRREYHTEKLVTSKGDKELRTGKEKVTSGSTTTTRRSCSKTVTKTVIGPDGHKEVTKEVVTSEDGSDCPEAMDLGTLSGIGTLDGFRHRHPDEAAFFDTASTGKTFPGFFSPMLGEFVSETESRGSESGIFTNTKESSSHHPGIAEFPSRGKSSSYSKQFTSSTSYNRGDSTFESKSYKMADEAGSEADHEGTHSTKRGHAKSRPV
T1 sequence (P02675 31-491): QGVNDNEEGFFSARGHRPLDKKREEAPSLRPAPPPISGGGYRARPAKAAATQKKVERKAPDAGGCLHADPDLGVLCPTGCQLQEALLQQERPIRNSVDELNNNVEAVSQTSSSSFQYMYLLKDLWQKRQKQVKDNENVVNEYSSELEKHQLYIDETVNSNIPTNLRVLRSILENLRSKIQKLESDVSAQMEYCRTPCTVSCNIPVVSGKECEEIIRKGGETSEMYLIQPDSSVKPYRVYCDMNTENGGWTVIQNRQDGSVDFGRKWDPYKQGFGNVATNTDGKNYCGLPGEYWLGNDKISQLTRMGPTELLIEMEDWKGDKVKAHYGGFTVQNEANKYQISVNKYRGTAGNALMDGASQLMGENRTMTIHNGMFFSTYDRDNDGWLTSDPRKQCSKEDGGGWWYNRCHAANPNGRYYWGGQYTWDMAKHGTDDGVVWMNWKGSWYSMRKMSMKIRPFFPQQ
T1 sequence (P02679 27-453): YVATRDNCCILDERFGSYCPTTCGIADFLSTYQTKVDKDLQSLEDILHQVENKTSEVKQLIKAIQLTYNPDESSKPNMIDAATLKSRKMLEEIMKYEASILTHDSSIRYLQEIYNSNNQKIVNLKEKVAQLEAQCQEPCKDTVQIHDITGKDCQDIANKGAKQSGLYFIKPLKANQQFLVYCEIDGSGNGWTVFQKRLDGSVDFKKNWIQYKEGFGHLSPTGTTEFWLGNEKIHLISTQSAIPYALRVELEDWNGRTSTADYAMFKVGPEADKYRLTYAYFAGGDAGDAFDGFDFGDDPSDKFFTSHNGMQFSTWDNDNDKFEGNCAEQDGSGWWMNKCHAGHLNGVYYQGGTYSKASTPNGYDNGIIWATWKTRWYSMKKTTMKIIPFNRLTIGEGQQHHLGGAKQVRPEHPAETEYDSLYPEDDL
Description: (§2) Whole blood was taken from a single volunteer and enriched with trisodium citrate (0.3 mL of a 0.106 molar solution per 3 mL whole blood) (S-Monovette®, Sarstedt, Nümbrecht, Germany). Portions of 1.8 mL citrate blood were mixed with 0.2 mL NCT in 0.9% saline. The following final (after dilution in blood) NCT concentrations were tested separately: 1% (55 mM); 0.5% (27.5 mM); 0.25% (13.75 mM); 0.1% (5.5 mM); 0.05% (2.75 mM); 0.025% (1.375 mM); and 0.01% (0.55 mM). A control without NCT was performed in parallel. The following commercial coagulation tests were performed according to the prescription of the manufacturer: prothrombin time (PT) was determined using Thromborel® S test (Dade Behring GmbH, Marburg, Germany), activated partial thromboplastin time (aPTT) was determined using Pathromtin* SL test (Dade Behring GmbH, Marburg, Germany); thrombin time (TT) was determined using BC Thrombin Reagent test (Dade Behring GmbH, Marburg, Germany); and fibrinogen was determined using Multifibren* U test (Dade Behring GmbH, Marburg, Germany).
as §1

D-Dimer = D-Dimer in citrate blood; type: biochemical, human; conditions: Example 7, 0.25 IE heparin
Description: as §1

citrate blood [2] = assay: Activated partial thromboplastin time (aPTT), Pathromtin SL test; type: biochemical, human
Description: (§3) Whole blood was taken from volunteers and enriched with trisodium citrate (0.3 mL of a 0.106 molar solution per 3 mL whole blood) (S-Monovette®, Sarstedt, Nümbrecht, Germany). Routine coagulation tests were performed on the following samples:
(§4) The following commercial coagulation tests were performed according to the prescription of the manufacturer: prothrombin time (PT) was determined using Thromborel® S test (Dade Behring GmbH, Marburg, Germany); activated partial thromboplastin time (aPTT) was determined using Pathromtin* SL test (Dade Behring GmbH, Marburg, Germany); and thrombin time (TT) was determined using BC Thrombin Reagent test (Dade Behring GmbH, Marburg, Germany).
as §2, §1

citrate blood [3] = assay: Prothrombin time (PT), Thromborel S test; type: biochemical, human; conditions: Example 7, 0.25 IE heparin
Description: as §3, §4, §2, §1

citrate blood [4] = assay: Thrombin time (TT), BC Thrombin Reagent test; type: biochemical, human; conditions: Example 7, 0.25 IE heparin
Description: as §3, §4, §2, §1

Antithrombin III = Antithrombin III in citrate blood; type: biochemical, human; conditions: Example 7, 0.25 IE heparin
Description: as §1

## Cc1ccc(S(=O)(=O)[N-]Cl)cc1.[Na+] [chloramine T]
Infected injuries
  side effects of intravenous application: severe side effects such as pericardial and lung edema

## heparin [reference compound]
Citrate blood [1]; individual subjects 1-11
  International normalized ratio (INR): 1.2 (6×) and 1.3 (2×) and 1.1 (2×) and 1.4
Citrate blood [1]; mean of 11 subjects
  International normalized ratio (INR), mean value: 1.2
Fibrinogen; individual subjects 1-11
  Fibrinogen: 214 mg/dL and 155 mg/dL and 313 mg/dL and 153 mg/dL and 234 mg/dL and 236 mg/dL and 379 mg/dL and 309 mg/dL and 259 mg/dL and 283 mg/dL and 249 mg/dL
Fibrinogen; mean of 11 subjects
  Fibrinogen, mean value: 253.1 mg/dL
D-Dimer; individual subjects 1-11
  D-Dimer: 217 µg/L and 199 µg/L and 353 µg/L and 146 µg/L and 76 µg/L and 183 µg/L and 285 µg/L and 159 µg/L and 150 µg/L and 203 µg/L and 157 µg/L
D-Dimer; mean of 11 subjects
  D-Dimer, mean value: 193.5 µg/L
Citrate blood [2]; Example 5, citrate blood plus 0.25 IE heparin, increased from 36
  activated partial thromboplastin time: 56 s
Citrate blood [2]; Example 7, 0.25 IE heparin, individual subjects 1-11
  Activated partial thromboplastin time (aPTT): 283 s and 187 s and 135 s and 177 s and 375 s and 300 s and 400 s and 216 s and 284 s and 195 s and 169 s
Citrate blood [2]; Example 7, 0.25 IE heparin, mean of 11 subjects
  Activated partial thromboplastin time (aPTT), mean value: 247.4 s
Citrate blood [3]; individual subjects 1-11
  Prothrombin time (PT): 66% and 58% and 89% (2×) and 62% and 74% and 54% and 69% and 78% and 68% and 72%
Citrate blood [3]; mean of 11 subjects
  Prothrombin time (PT), mean value: 70.8%
Citrate blood [4]; individual subjects
  Thrombin time (TT): 400 s
Citrate blood [4]; mean of 11 subjects
  Thrombin time (TT), mean value: 400.0 s
Antithrombin III; individual subjects 1-11
  Antithrombin III: 93% and 79% and 99% and 83% (2×) and 81% (2×) and 88% and 113% and 75% and 94%
Antithrombin III; mean of 11 subjects
  Antithrombin III, mean value: 88.1%
